Measured values: patent EP2753335B1, “AN ANTHRACYCLINE FOR THE TREATMENT OF SEPSIS” (Instituto de Medicina Molecular, priority 2011, dated 2013)
Structures can show the parent of a compound that is named as a salt. Starred links: 1 amine or outer side, 2 acyl side, 3 side chain; linkers in the order of their positions; H or OH if unused. Positions of bridges follow the written chain, without caps; N, C: chain ends. Non-standard residues stand in square brackets, D forms with d. Residues, ends and D or L forms follow the SMILES beside them. Chains are numbered I, II in the order given. Actinocin(9to1) = Cc1c2oc3c(C)ccc(C(=O)[*:1])c3nc-2c(C(=O)[*:2])c(N)c1=O; NMeV = CN[C@H](C(=O)O)C(C)C; Sar = CNCC(=O)O

Columns and labels:
IL-1β = assay: In vitro chemical screen (Spectrum collection): IL-1β secretion by E. coli challenged THP-1 cells, DAS-ELISA; assay type: cell-based, human; details: THP-1 cells, 10µM compound for 1 hour, then PFA-fixed E. coli (MOI 20) for 24 hours
Method: (§1) We identified 45 leading candidates (Figure 1A and Table I) that inhibited both cytokines.
(§2) THP-1 human monocytes (American Tissue Culture Collection-ATCC TIB-202) were plated in 96 well plates at 10^6 cell/ml and incubated with each one of ∼2320 compounds included in the Spectrum collection (Microsource Discovery Systems, Gaylordsville, CT) at 10µM for 1 hour. Cells were then challenged with 4% PFA-fixed DH5α E.coli at a Multiplicity of Infection (MOI) of 20 bacterial cells per THP-1 cell for an additional 24 hours. The cell supernatants were collected and IL-1β and TNF cytokines quantified by DAS-ELISA, using Human IL-1β/IL-1F2 DuoSet® and Human TNF DuoSet® (R&D Systems ®), respectively, according to company's protocol.
(§3) We generated a working subset of The RNAi Consortium (TRC) shRNA lentiviral vector library ^33,33 that allows for the silencing of most of the genes that are either human kinases or phosphatases. This subset was composed of 1440 individually arrayed lentiviral shRNA vectors targeting ∼700 genes, after selecting the most efficient shRNAs (two on average) based on available silencing efficiency data from the Broad Institute of MIT and Harvard. THP-1 cells were plated in 96 well plates at 10^6 cell/ml and infected with shRNA-expressing lentivirus. 48 hrs later infected cells were selected with puromycin. After the 3 days of selection, plates were duplicated. One of the plates was used to measure the cell number using Alamar Blue® cell viability assay (Invitrogeia®), according to manufacturer's instructions. In the other plate, cells were stimulated with 4% PFA-fixed DH5α E.coli at a Multiplicity of Infection (MOI) of 20 bacterial cells per THP-1 cell. Twenty-four hours after stimulation, cell supernatants were collected and IL-1β and TNF cytokines quantified by DAS-ELISA. All data values from IL-1β and TNF secretion assays were normalized by dividing the amount of IL-1β and TNF in the conditioned media 24, 12, 8, 6, 4 or 2 hrs after E. coli stimulation by the number of cells in each well and then by the average concentration per cell of the plate. Results were logarithmic natural transformed. Scores were sorted in ascending order and graphed. We calculated 1.5 SDEVs above and below the mean to identify the genes that changed IL-1β and TNF secretion when silenced. The same approach was used to identify the compounds that changed IL-1β and TNF secretion. The selected genes were submitted to two or more rounds of phenotypic validation.

TNF = assay: In vitro chemical screen (Spectrum collection): TNF secretion by E. coli challenged THP-1 cells, DAS-ELISA; assay type: cell-based, human; details: THP-1 cells, 10µM compound for 1 hour, then PFA-fixed E. coli (MOI 20) for 24 hours
Method: as §1, §2, §3

| SMILES | Z score IL1b (IL-1β) | Z score TNFa (TNF) |
| --- | --- | --- |
| C[C@H](NCCc1ccc(O)cc1)[C@H](O)c1ccc(O)cc1 (racemic) [Ritodrine hydrochloriide] | -1,268303571 | -2,149761571 |
| O=C1C=CC(=O)c2ccccc21 [1,4-naphthoquinone] | -1,349015947 | -2,77797604 |
| CC1(C)C(=O)C=C[C@]2(C)[C@H]3CC[C@@]4(C)[C@H](c5ccoc5)OC(=O)[C@H]5O[C@]54[C@]3(C)C=C[C@@H]12 [7-desacetoxy-6,7-dehydrogedunin] | -1,789647817 | -2,517707805 |
| CC(=O)Oc1c2c(c(CC=C(C)C)c3c1C(=O)C1=C[C@@H]4CC5C(C)(C)OC(C/C=C(\C)C(=O)O)(C4=O)[C@@]15O3)OC(C)(CCC=C(C)C)C=C2 (stereo partly drawn) [Acetyl isogambogic acid] | -1,48116787 | -3,056795183 |
| CCCCCCc1ccc(O)cc1O.Nc1c2ccccc2nc2ccccc12 [Acrisorcin] | -0,959612692 | -3,10607388 |
| CC[C@@]1(O)C[C@H](O[C@H]2C[C@H](N(C)C)[C@H](O)[C@H](C)O2)c2c(cc3c(c2O)C(=O)c2c(O)cccc2C3=O)[C@H]1C(=O)OC [Aklavine hydrochloride] | -1,408917561 | -3,511681732 |
| CCC(=O)OCC(=O)[C@@]1(OC(=O)CC)[C@H](C)C[C@H]2[C@H]3[C@H]([C@@H](O)C[C@@]21C)[C@@]1(C)C=CC(=O)C=C1C[C@H]3Cl [Alclometazone dipropionate] | -0,922964076 | -1,999200408 |
| CCCCC(CC)CNC(=N)NC(=N)NCCCCCCNC(=N)NC(=N)NCC(CC)CCCC (stereo not drawn) [Alexidine hydrochloride] | – | -2,648173863 |
| CC(=O)O[C@@H]1C[C@@]2(C)[C@H](c3ccoc3)C[C@H]3O[C@]32[C@]2(C)C(=O)C(O)=C3C(C)(C)C(=O)C=C[C@]3(C)[C@@H]12 [Anthothecol] | -1,868706598 | -2,834385142 |
| S=C=NCc1ccccc1 [Benzyl isothiocyanate] | -1,034306584 | -2,908582737 |
| CC(=O)OCC(=O)[C@@]1(O)[C@@H](C)C[C@H]2[C@@H]3CCC4=CC(=O)C=C[C@]4(C)[C@@]3(F)[C@@H](O)C[C@@]21C [Betamethasone acetate] | -0,950513609 | -2,560814606 |
| CC1(C)C(=O)C=C[C@@]2(C)C1=C(O)C(=O)[C@]1(C)[C@@H]2CC[C@@]2(C)[C@H](c3ccoc3)C[C@H]3O[C@]321 [Cedrelone] | -1,852572153 | -2,817231786 |
| CC1=C(O)C(=O)C=C2C1=CC=C1[C@@]2(C)CC[C@@]2(C)[C@@H]3C[C@](C)(C(=O)O)CC[C@]3(C)CC[C@]12C [Celastrol] | -1,499560887 | -2,941287145 |
| C=C1C(=O)O[C@H]2C[C@@H]1C(OC(C)=O)C/C(C)=C/CC/C(C)=C/CC[C@@]2(C)O (stereo partly drawn) [Crassin acetate] | -2,126298968 | -4,448741528 |
| Cc1c2oc3c(C)ccc(C(=O)N[C@@H]4C(=O)N[C@H](C(C)C)C(=O)N5CCC[C@H]5C(=O)N(C)CC(=O)N(C)[C@@H](C(C)C)C(=O)O[C@@H]4C)c3nc-2c(C(=O)N[C@@H]2C(=O)N[C@H](C(C)C)C(=O)N3CCC[C@H]3C(=O)N(C)CC(=O)N(C)[C@@H](C(C)C)C(=O)O[C@@H]2C)c(N)c1=O [Dactinomycin] (I: T[dV]P[Sar][NMeV] / II: T[dV]P[Sar][NMeV]; ester I:1-I:C, II:1-II:C; linker I:N-II:N via Actinocin(9to1)) | -1,187827575 | -4,13760156 |
| CC1(C)O[C@@H]2C[C@H]3[C@@H]4CCC5=CC(=O)C=C[C@]5(C)[C@H]4[C@@H](O)C[C@]3(C)[C@]2(C(=O)CO)O1 [Desonide] | -0,945977097 | -2,297715909 |
| C[C@@H]1C[C@H]2[C@@H]3CCC4=CC(=O)C=C[C@]4(C)[C@@]3(F)[C@@H](O)C[C@]2(C)[C@H]1C(=O)CO [Desoxymetasone] | -0,995122645 | -2,417754689 |
